Reference: patent publication US8633225B2, “Piperidinium compounds and cosmetic compositions containing them” (Beiersdorf AG, priority 2006, dated 2014)

Assay: inhibiting or reducing perspiration (antihidrotic effect); statement only, no test described
Conditions: qualitative statement

For `CCC(C)C(C(=O)OC1CC[N+](C)(C)CC1)c1ccccc1.[Br-]` (stereo not shown) [4-{[2-(2-butyl)-2-phenylacetyl)oxy]}-1,1-dimethyl-piperidinium bromide], the “efficacy in inhibiting perspiration” value was “very good efficacy in inhibiting perspiration”.
